Data on 29 molecules can be found in patent US20140057895A1, “INDAZOLE- AND PYRROLOPYRIDINE-DERIVATIVE AND PHARMACEUTICAL USE THEREOF” (priority 2011, published 2014).

Counter-ions that a name gives are not always drawn.

The target in this assay is T1, Human 5-HT4 receptor (5-HT4b) (Homo sapiens, UniProt Q13639).
T1 construct: expressed in transfected cells; membrane preparation
T1 sequence (Q13639 whole entry): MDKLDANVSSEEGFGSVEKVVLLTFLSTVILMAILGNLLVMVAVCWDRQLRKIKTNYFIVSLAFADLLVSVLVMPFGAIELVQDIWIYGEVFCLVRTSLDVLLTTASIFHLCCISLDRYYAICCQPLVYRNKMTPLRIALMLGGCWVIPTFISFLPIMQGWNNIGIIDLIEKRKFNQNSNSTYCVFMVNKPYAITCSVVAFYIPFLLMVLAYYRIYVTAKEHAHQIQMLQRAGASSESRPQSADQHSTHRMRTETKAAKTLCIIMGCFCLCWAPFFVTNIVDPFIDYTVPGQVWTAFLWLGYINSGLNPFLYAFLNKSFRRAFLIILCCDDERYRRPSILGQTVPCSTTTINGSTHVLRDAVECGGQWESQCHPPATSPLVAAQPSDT
The assay can be described thus: Test Example 3: Human 5-HT4 receptor binding assay, membranes of CHO-K1 cells stably expressing 5-HT4b receptors (Table 99). Conditions: mean value of each group. The procedure:
To an assay tube were added 0.1 nM [^3H]-GR113808 {chemical name: [1-[2-(methylsulfonylamino) ethyl]-4-piperidinyl]methyl 1-methylindole-3-carboxylate}, receptor membrane preparations, and Hepes buffer (50 mM, pH 7.4, 4° C., 1 ml) containing test compounds or 30 μM serotonin; and the mixture was incubated at 37° C. for 30 minutes. On quenching the reaction, the mixture was rapidly filtered on whatman GF/B filter, which was presoaked in 0.1% polyethyleneimine for 1 hour, by using Brandel cell Harvester, and washed with ice-cooled 50 mM Tris-HCl (pH 7.7, 4 ml) three times. To the filter after filtration was added a liquid scintillator (Ecoscint), and then a radioactivity was determined by a liquid scintillation counter.
50% Inhibition concentrations (IC50) were determined from inhibition rates of test compounds to specific bindings which were obtained by subtracting nonspecific bindings from total binding amounts of [^3H]-GR113808.
Human 5-HT4 receptor membrane preparations were prepared from CHO-K^1 cells which stably express 5-HT4b receptors, and human 5-HT4 receptor binding assay was carried out in a similar manner as in the guinea pig 5-HT4 receptor binding assay. The following tables show results of serotonin 4 (5-HT4) receptor binding assay. In the following tables, the compounds used in the test are shown in numbers which correspond to the Example numbers above where the preparations of the compounds are described.
A word on the IC50: it is the concentration that gives 50% inhibition. A lower IC50 goes with greater potency. In turn, `CC(C)c1nn(-c2noc([C@H]3CC[C@H](NCC4CCCO4)CC3)n2)c2c(F)cccc12` (relative stereo) [Example 620, trans-4-{3-[7-fluoro-3-(propan-2-yl)-1H-indazol-1-yl]-1,2,4-oxadiazol-5-yl}-N-(tetrahydrofuran-2-ylmethyl)cyclohexanamine] showed an IC50 of less than 20 nM.

On to `CC(=O)N1CCCC(N[C@H]2CC[C@@H](c3nc(-n4nc(C(C)C)c5cccc(F)c54)no3)CC2)C1` (relative stereo) [Example 622, 1-{3-[(cis-4-{3-[7-fluoro-3-(propan-2-yl)-1H-indazol-1-yl]-1,2,4-oxadiazol-5-yl}cyclohexyl)amino]piperidin-1-yl}ethanone], for which the IC50 came out at 123 nM. In other words, the sub-micromolar range.

`CC(C)c1nn(-c2noc([C@H]3CC[C@@H](NC4CCCOC4)CC3)n2)c2c(F)cccc12` (relative stereo) [Example 623, N-(cis-4-{3-[7-fluoro-3-(propan-2-yl)-1H-indazol-1-yl]-1,2,4-oxadiazol-5-yl}cyclohexyl)tetrahydro-2H-pyran-3-amine] gave an IC50 of 105 nM.

Molecule `CC(C)c1nn(-c2noc(C3CCN(CCc4cccnc4)CC3)n2)c2c(F)cccc12` [Example 399, 7-fluoro-3-(propan-2-yl)-1-(5-{1-[2-(pyridin-3-yl)ethyl]piperidin-4-yl}-1,2,4-oxadiazol-3-yl)-1H-indazole] displayed an IC50 of 20.2 nM.

Turning to `CC(C)c1nn(-c2noc(C3CCN(C(C)(C)C(=O)OC(C)(C)C)CC3)n2)c2c(F)cccc12` [Example 400, tert-butyl 2-(4-{3-[7-fluoro-3-(propan-2-yl)-1H-indazol-1-yl]-1,2,4-oxadiazol-5-yl}piperidin-1-yl)-2-methylpropanoate], the IC50 came out at 225 nM.

The molecule `CC(C)c1nn(-c2noc(C3CCN(C(C)(C)C(=O)O)CC3)n2)c2c(F)cccc12` [Example 401, 2-(4-{3-[7-fluoro-3-(propan-2-yl)-1H-indazol-1-yl]-1,2,4-oxadiazol-5-yl}piperidin-1-yl)-2-methylpropanoic acid hydrochloride] yielded an IC50 of 296 nM.

In turn, `CC(=O)N1CCC(N2CC(Cc3nc(-n4nc(C(C)C)c5cccc(F)c54)no3)C2)CC1` [Example 416] registered a half-inhibitory concentration (IC50) of 27.4 nM.

`CC(=O)N1CCC(N2CCC(c3nc(-n4nc(C(C)C)c5cccc(F)c54)no3)CC2C)CC1` (centres unmarked) [Example 418, 1-(4-{3-[7-fluoro-3-(propan-2-yl)-1H-indazol-1-yl]-1,2,4-oxadiazol-5-yl}-2-methyl-1,4′-bipiperidin-1′-yl}ethanone] displayed a concentration for half-maximal inhibition (IC50) of 442 nM. This IC50 is about 16-fold higher than that of the molecule before.

For the molecule `Cc1cccc2c1c(C(C)C)nn2-c1noc(C2CCN(C3CCC3)CC2)n1` [Example 423, 1-[5-(1-cyclobutylpiperidin-4-yl)-1,2,4-oxadiazol-3-yl]-4-methyl-3-(propan-2-yl)-1H-indazole], the IC50 was found to be 136 nM.

As for `Cc1cccc2c1c(C(C)C)nn2-c1noc(C2CCN(C3CCOCC3)CC2)n1` [Example 424, 4-methyl-3-(propan-2-yl)-1-{5-[1-(tetrahydro-2H-pyran-4-yl)piperidin-4-yl]-1,2,4-oxadiazol-3-yl}-1H-indazole], the IC50 worked out at 55 nM.

With `CC(C)c1nn(-c2noc(C3CCN(C4CCS(=O)(=O)CC4)CC3)n2)c2c(F)cccc12` [Example 444, 1-{5-[1-(1,1-dioxidotetrahydro-2H-thiopyran-4-yl)piperidin-4-yl]-1,2,4-oxadiazol-3-yl}-7-fluoro-3-(propan-2-yl)-1H-indazole], the IC50 turned out to be 96.8 nM. Against the preceding molecule, the IC50 is about 1.8-fold higher.

Take `CC(C)Cc1nn(-c2noc(C3CCN(C4CCN(C(=O)CO)CC4)CC3)n2)c2c(F)cccc12` [Example 526, 1-(4-{3-[7-fluoro-3-(2-methylpropyl)-1H-indazol-1-yl]-1,2,4-oxadiazol-5-yl}-1,4′-bipiperidin-1′-yl)-2-hydroxyethanone]: the IC50 was found to be 25.2 nM.

For `CC(C)c1nn(-c2noc(C3CCN(C4C5CCCC4CN(C(=O)CO)C5)CC3)n2)c2c(F)cccc12` (stereo not drawn) [Example 535, 1-[(9-anti)-9-(4-{3-[7-fluoro-3-(propan-2-yl)-1H-indazol-1-yl]-1,2,4-oxadiazol-5-yl}piperidin-1-yl)-3-azabicyclo[3.3.1]non-3-yl]-2-hydroxyethanone], the IC50 was determined as 29.7 nM.

Regarding `CCOC(=O)N1CCC(N2CCC(c3nc(-n4nc(C(C)C)c5cccc(F)c54)no3)CC2)C(OC)C1` (centres unmarked) [Example 556, ethyl 4-{3-[7-fluoro-3-(propan-2-yl)-1H-indazol-1-yl]-1,2,4-oxadiazol-5-yl}-3′-methoxy-1,4′-bipiperidine-1′-carboxylate], the IC50 was found to be 52.1 nM. This IC50 is about 1.8-fold higher than that of the molecule before.

With `CC(=O)N1CC[C@@H](NC2CC(c3nc(-n4nc(C(C)C)c5cccc(F)c54)no3)C2)C1` (stereo partly drawn) [Example 592, 1-{(3R)-3-[(3-{3-[7-fluoro-3-(propan-2-yl)-1H-indazol-1-yl]-1,2,4-oxadiazol-5-yl}cyclobutyl)amino]pyrrolidin-1-yl}ethanone], the IC50 is less than 20 nM.

`CC(C)c1nn(-c2noc(C3CC(NCCC4CCOC4)C3)n2)c2c(F)cccc12` (centres unmarked) [Example 599, 3-{3-[7-fluoro-3-(propan-2-yl)-1H-indazol-1-yl]-1,2,4-oxadiazol-5-yl}-N-[2-(tetrahydrofuran-3-yl)ethyl]cyclobutanamine] returned an IC50 of less than 20 nM.

`CC(C)c1nn(-c2noc(C3CC(NC4CCCOC4)C3)n2)c2c(F)cccc12` (centres unmarked) [Example 600, N-(3-{3-[7-fluoro-3-(propan-2-yl)-1H-indazol-1-yl]-l,2,4-oxadiazol-5-yl}cyclobutyl)tetrahydro-2H-pyran-3-amine]: the IC50 is less than 20 nM.

Turning to `CC(C)c1nn(-c2noc(C3CC(NCC4CCCOC4)C3)n2)c2c(F)cccc12` (centres unmarked) [Example 601, 3-{3-[7-fluoro-3-(propan-2-yl)-1H-indazol-1-yl]-1,2,4-oxadiazol-5-yl}-N-{tetrahydro-2H-pyran-3-ylmethyl)cyclobutanamine], the half-inhibitory concentration (IC50) is less than 20 nM.

For the molecule `CC(C)c1nn(-c2noc(C3CC(NCC4CCCCO4)C3)n2)c2c(F)cccc12` (centres unmarked) [Example 602, 3-{3-[7-fluoro-3-(propan-2-yl)-1H-indazol-1-yl]-1,2,4-oxadiazol-5-yl}-N-(tetrahydro-2H-pyran-2-ylmethyl)cyclobutanamine], the IC50 is less than 20 nM.

`CC(C)c1nn(-c2noc(C3CC(NCCC4CCOCC4)C3)n2)c2c(F)cccc12` (centres unmarked) [Example 603, 3-{3-[7-fluoro-3-(propan-2-yl)-1H-indazol-1-yl]-1,2,4-oxadiazol-5-yl}-N-[2-(tetrahydro-2H-pyran-4-yl)ethyl]cyclobutanamine] displayed a half-maximal inhibitory concentration (IC50) of 28.6 nM.

The molecule `CC(C)c1nn(-c2noc(C3CC(NCCC4CCCOC4)C3)n2)c2c(F)cccc12` (centres unmarked) [Example 604, 3-{3-[7-fluoro-3-(propan-2-yl)-1H-indazol-1-yl]-1,2,4-oxadiazol-5-yl}-N-[2-(tetrahydro-2H-pyran-3-yl)ethyl]cyclobutanamine] registered a half-inhibitory concentration (IC50) of less than 20 nM.

Regarding `CC(C)c1nn(-c2noc(C3CC(NC4COC4)C3)n2)c2c(F)cccc12` (centres unmarked) [Example 606, N-(3-{3-[7-fluoro-3-(propan-2-yl)-1H-indazol-1-yl]-1,2,4-oxadiazol-5-yl}cyclobutyl)oxetan-3-amine], the concentration for half-maximal inhibition (IC50) was 86.7 nM. This lies in the double-digit nanomolar range.

`CC(C)c1nn(-c2noc(C3CC(NC4CCOC4)C3)n2)c2c(F)cccc12` (centres unmarked) [Example 607, N-(3-{3-[7-fluoro-3-(propan-2-yl)-1H-indazol-1-yl]-1,2,4-oxadiazol-5-yl)cyclobutyl)tetrahydrofuran-3-amine] came in with an IC50 of less than 20 nM.

Regarding `CC(C)c1nn(-c2noc(C3CC(NCC4CCOC4)C3)n2)c2c(F)cccc12` (centres unmarked) [Example 608, 3-{3-[7-fluoro-3-(propan-2-yl)-1H-indazol-1-yl]-1,2,4-oxadiazol-5-yl}-N-(tetrahydrofuran-3-ylmethyl)cyclobutanamine], the IC50 is less than 20 nM.

For the molecule `COCCCNC1CC(c2nc(-n3nc(C(C)C)c4cccc(F)c43)no2)C1` (centres unmarked) [Example 609, 3-{3-[7-fluoro-3-(propan-2-yl)-1H-indazol-1-yl]-1,2,4-oxadiazol-5-yl}-N-(3-methoxypropyl)cyclobutanamine], the IC50 was less than 20 nM.

Molecule `COCCN(CC1CCOCC1)C1CC(c2nc(-n3nc(C(C)C)c4cccc(F)c43)no2)C1` (centres unmarked) [Example 613, 3-{3-[7-fluoro-3-(propan-2-yl)-1H-indazol-1-yl]-1,2,4-oxadiazol-5-yl}-N-(2-methoxyethyl)-N-{tetrahydro-2H-pyran-4-ylmethyl)cyclobutanamine] registered an IC50 of less than 20 nM.

In the case of `COCCN(C1CCOCC1)[C@H]1C[C@H](c2nc(-n3nc(C(C)C)c4cccc(F)c43)no2)C1` [Example 615, N-(trans-3-{3-[7-fluoro-3-(propan-2-yl)-1H-indazol-1-yl]-1,2,4-oxadiazol-5-yl}cyclobutyl)-N-(2-methoxyethyl)tetrahydro-2H-pyran-4-amine], the concentration for half-maximal inhibition (IC50) worked out at 27.4 nM.

Molecule `CC(C)c1nn(-c2noc(C3CCC(NCCC4CCCOC4)CC3)n2)c2c(F)cccc12` (centres unmarked) [Example 619, 4-{3-[7-fluoro-3-(propan-2-yl)-1H-indazol-1-yl]-1,2,4-oxadiazol-5-yl}-N-[2-(tetrahydro-2H-pyran-3-yl)ethyl]cyclohexanamine] displayed an IC50 of 39.2 nM.

As for `COCCNC1CCC(c2nc(-n3nc(C(C)C)c4cccc(F)c43)no2)CC1` (centres unmarked) [Example 621, 4-{3-[7-fluoro-3-(propan-2-yl)-1H-indazol-1-yl]-1,2,4-oxadiazol-5-yl}-N-(2-methoxyethyl)cyclohexanamine], the IC50 amounted to 69.4 nM.
